The values below are quoted from earlier work in US4410516A, “1-N(αHydroxy-ω-aminoalkanoyl) derivatives of 5,3',4'-trideoxy- or 5,3', 4'-trideoxy-6'-N- methyl- or 5, 3', 4',6"-tetradeoxykannamyci B and production thereof” (Zaidan Hojin Biseibutsu Kagaku Kenkyu Kai, priority 1981, dated 1983).

The conditions of data set [1]: in words, other filings; cited from earlier work.
The test system of a further data set is bacteria. Particulars: in words, earlier work / other filings; cited from earlier work.
The next data set concerns animals, including men. As to conditions: in words, other filings; cited from earlier work.

Entries after “also recorded” stand apart in the source; their conditions may differ.

`C[C@@H]1C[C@H](N)[C@@H](O)[C@@H](O[C@@H]2[C@@H](O)[C@H](O[C@H]3O[C@H](CN)CC[C@H]3O)[C@@H](N)C[C@H]2NC(=O)[C@@H](O)CCN)O1` [3',4',4",6"-tetradeoxyamikacin]: the oto-toxicity entry in data set [1] is reported as “low oto-toxicity”. In the data set with bacteria, the antibacterial activity entry is listed as “useful antibacterial activity as high as that of amikacin”. Also, in the data set with animals, including men, the acute toxicity result was “low acute toxicity”.

Regarding `C[C@H]1O[C@H](O[C@@H]2[C@@H](O)[C@H](O[C@H]3O[C@H](CN)CC[C@H]3O)[C@@H](N)C[C@H]2NC(=O)[C@@H](O)CCN)[C@H](O)[C@@H](N)[C@@H]1O` [3',4',6"-trideoxyamikacin], in data set [1], the oto-toxicity result is reported as “low oto-toxicity”. Also, the antibacterial activity result with bacteria is on record as “useful antibacterial activity as high as that of amikacin”. In addition, the acute toxicity entry in the data set with animals, including men is given as “low acute toxicity”.

Consider `NCC[C@H](O)C(=O)N[C@@H]1C[C@H](N)[C@@H](O[C@H]2O[C@H](CN)CC[C@H]2O)[C@H](O)[C@H]1O[C@H]1O[C@H](CO)[C@@H](O)[C@H](N)[C@H]1O` [3',4'-dideoxyamikacin], for which the oto-toxicity entry in data set [1] is “low oto-toxicity”. The antibacterial activity result in the data set on bacteria was “useful antibacterial activity as high as that of amikacin”. The acute toxicity entry with animals, including men was “low acute toxicity”.

Consider `C[C@H]1O[C@H](O[C@@H]2[C@@H](O)[C@H](O[C@H]3O[C@H](CN)[C@@H](O)C[C@H]3O)[C@@H](N)C[C@H]2NC(=O)[C@@H](O)CCN)[C@H](O)[C@@H](N)[C@@H]1O` [3',6"-dideoxyamikacin], for which the oto-toxicity entry in data set [1] was “low oto-toxicity”. Moreover, the antibacterial activity result in the data set on bacteria is “useful antibacterial activity as high as that of amikacin”. The acute toxicity result with animals, including men is reported as “low acute toxicity”.

`NCC[C@H](O)C(=O)N[C@@H]1C[C@H](N)[C@@H](O[C@H]2O[C@H](CN)[C@@H](O)C[C@H]2O)[C@H](O)[C@H]1O[C@H]1O[C@H](CO)[C@@H](O)[C@H](N)[C@H]1O` [3'-deoxyamikacin]: the oto-toxicity entry in data set [1] is listed as “low oto-toxicity”. For the same compound, in the data set on bacteria, the antibacterial activity result is reported as “useful antibacterial activity as high as that of amikacin”. For the same compound, the acute toxicity result in the data set with animals, including men was “low acute toxicity”.

Turning to `C[C@@H]1C[C@H](N)[C@@H](O)[C@@H](O[C@@H]2[C@@H](O)[C@H](O[C@H]3O[C@H](CN)[C@@H](O)[C@H](O)[C@H]3O)[C@@H](N)C[C@H]2NC(=O)[C@@H](O)CCN)O1` [4",6"-dideoxyamikacin], the oto-toxicity entry in data set [1] is recorded as “low oto-toxicity”. For the same compound, the antibacterial activity result in the data set with bacteria was “useful antibacterial activity as high as that of amikacin”. Moreover, the acute toxicity result with animals, including men is on record as “low acute toxicity”.

For `NC[C@@H]1CC[C@@H](N)[C@@H](O[C@H]2C[C@@H](O[C@H]3O[C@H](CO)[C@@H](O)[C@H](N)[C@H]3O)[C@H](N)C[C@@H]2N)O1` [5,3',4'-trideoxykanamycin B], the antibacterial activity entry in the data set on bacteria was “less active than dibekacin; also recorded: exhibits no useful anti-bacterial activity”.

For `C[C@H]1O[C@H](O[C@@H]2C[C@H](O[C@H]3O[C@H](CN)[C@@H](O)C[C@H]3O)[C@@H](N)C[C@H]2NC(=O)[C@@H](O)CCN)[C@H](O)[C@@H](N)[C@@H]1O` [5,3',6"-trideoxyamikacin], in data set [1], the oto-toxicity result was “low oto-toxicity”. The antibacterial activity entry in the data set with bacteria is reported as “useful antibacterial activity as high as that of amikacin”. Also, in the data set with animals, including men, the acute toxicity entry is listed as “low acute toxicity”.

In the case of `NCC[C@H](O)C(=O)N[C@@H]1C[C@H](N)[C@@H](O[C@H]2O[C@H](CN)[C@@H](O)C[C@H]2O)C[C@H]1O[C@H]1O[C@H](CO)[C@@H](O)[C@H](N)[C@H]1O` [5,3'-dideoxyamikacin], in data set [1], the oto-toxicity entry is “low oto-toxicity”. For the same compound, the antibacterial activity entry in the data set with bacteria is “useful antibacterial activity as high as that of amikacin”. The acute toxicity result in the data set on animals, including men was “low acute toxicity”.

For `C[C@H]1O[C@H](O[C@@H]2[C@@H](O)[C@H](O[C@H]3O[C@H](CN)[C@@H](O)[C@H](O)[C@H]3O)[C@@H](N)C[C@H]2NC(=O)[C@@H](O)CCN)[C@H](O)[C@@H](N)[C@@H]1O` [6"-deoxyamikacin], in data set [1], the oto-toxicity result was “low oto-toxicity”. The antibacterial activity entry in the data set on bacteria is “useful antibacterial activity as high as that of amikacin”. For the same compound, the acute toxicity entry in the data set on animals, including men is reported as “low acute toxicity”.

In the case of `NC[C@@H]1CC[C@@H](N)[C@@H](O[C@H]2[C@H](O)[C@@H](O[C@H]3O[C@H](CO)[C@@H](O)[C@H](N)[C@H]3O)[C@H](N)C[C@@H]2N)O1` [Dibekacin, 3',4'-dideoxykanamycin B], in the data set on bacteria, the antibacterial activity result was “active against the kanamycin-sensitive bacteria and also against various kanamycin-resistant bacteria”.
